Measurements as given in ChEMBL document CHEMBL5113538, “Discovery of Novel Allosteric EGFR L858R Inhibitors for the Treatment of Non-Small-Cell Lung Cancer as a Single Agent or in Combination with Osimertinib” (J Med Chem, 2022).
pIC50: −log10 of the molar value.

Test system: not listed separately
Experiment: Intrinsic clearance in human liver hepatocytes measured per 10^6 cells incubated upto 2 hrs by LC-MS/MS analysis
Format: ADME, cell-based, Hepatocyte
Conditions: read-out: CLH

Row | SMILES | hepatocyte CLint [µL/min/1e6 cells]
1 | O=C(Nc1nccs1)C(c1ncn2c1CCC2)N1Cc2ccc(C#Cc3ccc(CN4CCCCC4)cc3)cc2C1=O (stereo not drawn) | 6.5

Target: Epidermal growth factor receptor (Homo sapiens, UniProt P00533, C797S/L858R)
Sequence (P00533 25-1210 C797S/L858R limits assumed): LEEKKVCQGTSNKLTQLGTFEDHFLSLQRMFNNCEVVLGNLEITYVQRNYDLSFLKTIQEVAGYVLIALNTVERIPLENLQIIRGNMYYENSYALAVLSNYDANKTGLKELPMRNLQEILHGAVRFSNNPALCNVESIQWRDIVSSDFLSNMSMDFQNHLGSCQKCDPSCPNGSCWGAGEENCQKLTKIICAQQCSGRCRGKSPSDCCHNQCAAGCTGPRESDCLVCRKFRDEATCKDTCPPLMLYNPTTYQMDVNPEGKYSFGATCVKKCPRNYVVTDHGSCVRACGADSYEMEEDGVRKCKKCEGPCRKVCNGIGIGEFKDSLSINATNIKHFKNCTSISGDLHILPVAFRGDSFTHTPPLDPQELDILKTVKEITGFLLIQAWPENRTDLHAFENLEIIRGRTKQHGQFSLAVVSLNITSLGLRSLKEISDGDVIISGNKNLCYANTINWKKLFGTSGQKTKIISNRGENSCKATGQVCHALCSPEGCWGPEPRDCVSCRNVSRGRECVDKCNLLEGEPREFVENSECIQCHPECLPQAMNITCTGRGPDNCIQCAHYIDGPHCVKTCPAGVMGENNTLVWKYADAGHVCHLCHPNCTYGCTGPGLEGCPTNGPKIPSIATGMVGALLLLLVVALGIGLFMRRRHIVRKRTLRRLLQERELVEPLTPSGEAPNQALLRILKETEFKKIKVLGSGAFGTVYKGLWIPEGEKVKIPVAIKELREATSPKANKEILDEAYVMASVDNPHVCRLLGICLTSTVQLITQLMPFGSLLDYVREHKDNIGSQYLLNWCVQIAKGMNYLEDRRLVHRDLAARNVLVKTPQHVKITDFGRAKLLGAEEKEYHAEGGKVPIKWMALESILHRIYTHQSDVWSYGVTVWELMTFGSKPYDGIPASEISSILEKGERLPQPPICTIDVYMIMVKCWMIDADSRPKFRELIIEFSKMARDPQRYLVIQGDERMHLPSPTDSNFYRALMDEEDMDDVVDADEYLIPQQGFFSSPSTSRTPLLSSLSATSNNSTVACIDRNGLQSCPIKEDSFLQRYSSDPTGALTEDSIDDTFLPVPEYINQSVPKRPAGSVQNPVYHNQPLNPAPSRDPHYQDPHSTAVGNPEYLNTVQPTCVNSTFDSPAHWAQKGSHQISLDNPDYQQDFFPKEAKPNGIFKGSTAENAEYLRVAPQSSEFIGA
Conditions: not given

Row | SMILES | pIC50
2 | Nc1ccc(C#Cc2cc(F)c3c(c2)C(=O)N(C(C(=O)Nc2nccs2)c2ncn4c2CCC4)C3)cn1 (stereo not drawn) | 5.96
3 | CCN1CCN(c2ccc(-c3cc(F)c4cn(C(C(=O)Nc5nccs5)c5ncn6c5CCC6)nc4c3)cc2)CC1 (stereo not drawn) | 7.04
4 | O=C(Nc1nccs1)C(c1ncn2c1CCC2)N1Cc2ccc(C#Cc3ccc(CN4CCC(O)CC4)cc3)cc2C1=O (stereo not drawn) | 6.53
5 | O=C(Nc1nccs1)C(c1ncn2c1CCC2)N1Cc2ccccc2C1=O (stereo not drawn) | 5.77
6 | O=C(Nc1nccs1)C(c1ncn2c1CCC2)N1Cc2ccc(C#Cc3ccc(CN4CCCCC4)cc3)cc2C1=O (stereo not drawn) | 6.47

The next molecules have a higher pIC50 than those just listed; values first:

Row | pIC50 | SMILES
7 | 7.82 | CCN1CCN(c2ccc(-c3cc(Cl)c4cn(C(C(=O)Nc5nccs5)c5ncn6c5C[C@@H](F)C6)nc4c3Cl)cc2)CC1 (mixture of isomers)
8 | 7.92 | O=C(Nc1nccs1)C(c1ncn2c1CCC2)N1Cc2c(F)cc(C#Cc3ccc(CN4CCC(CO)CC4)cc3)cc2C1=O (stereo not drawn)

Target: Epidermal growth factor receptor (Homo sapiens, UniProt P00533, C797S/L858R/T790M)
Sequence (P00533 25-1210 T790M/C797S/L858R limits assumed): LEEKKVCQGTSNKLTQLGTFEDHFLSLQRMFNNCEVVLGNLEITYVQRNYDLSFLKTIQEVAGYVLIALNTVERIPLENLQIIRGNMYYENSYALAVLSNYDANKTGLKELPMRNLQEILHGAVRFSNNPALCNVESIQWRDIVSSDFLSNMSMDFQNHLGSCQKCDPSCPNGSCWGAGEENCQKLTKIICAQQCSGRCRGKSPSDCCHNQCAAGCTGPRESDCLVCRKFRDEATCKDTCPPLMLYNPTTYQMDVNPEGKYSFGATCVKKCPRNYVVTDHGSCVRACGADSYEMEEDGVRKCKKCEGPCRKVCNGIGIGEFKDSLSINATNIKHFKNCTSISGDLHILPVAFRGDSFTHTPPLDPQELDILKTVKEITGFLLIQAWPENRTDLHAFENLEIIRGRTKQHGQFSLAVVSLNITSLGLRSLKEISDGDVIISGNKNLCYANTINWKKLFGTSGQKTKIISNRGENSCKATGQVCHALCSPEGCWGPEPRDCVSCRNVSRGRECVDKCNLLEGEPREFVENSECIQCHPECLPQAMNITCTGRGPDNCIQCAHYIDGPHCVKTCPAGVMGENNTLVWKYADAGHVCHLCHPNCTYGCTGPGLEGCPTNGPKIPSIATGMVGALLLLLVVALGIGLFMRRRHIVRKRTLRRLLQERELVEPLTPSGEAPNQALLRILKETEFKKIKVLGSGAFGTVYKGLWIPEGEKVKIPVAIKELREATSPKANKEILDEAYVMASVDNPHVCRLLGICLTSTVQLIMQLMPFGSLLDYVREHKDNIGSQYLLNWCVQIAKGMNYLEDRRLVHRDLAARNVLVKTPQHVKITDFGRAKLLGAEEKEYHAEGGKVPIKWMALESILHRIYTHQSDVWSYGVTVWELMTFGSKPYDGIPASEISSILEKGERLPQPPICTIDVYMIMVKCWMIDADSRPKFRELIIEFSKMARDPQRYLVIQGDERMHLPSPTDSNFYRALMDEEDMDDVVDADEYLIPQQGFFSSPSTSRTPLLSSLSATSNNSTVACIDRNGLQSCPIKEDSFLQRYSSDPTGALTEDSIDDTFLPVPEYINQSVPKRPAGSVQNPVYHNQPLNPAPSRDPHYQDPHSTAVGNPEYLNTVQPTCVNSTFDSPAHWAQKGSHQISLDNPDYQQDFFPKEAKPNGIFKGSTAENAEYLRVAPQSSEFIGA
Conditions: not given

Row | SMILES | pIC50
9 | Nc1ccc(C#Cc2cc(F)c3c(c2)C(=O)N(C(C(=O)Nc2nccs2)c2ncn4c2CCC4)C3)cn1 (stereo not drawn) | 6.94
10 | CCN1CCN(c2ccc(-c3cc(F)c4cn(C(C(=O)Nc5nccs5)c5ncn6c5CCC6)nc4c3)cc2)CC1 (stereo not drawn) | 8.15
11 | O=C(Nc1nccs1)C(c1ncn2c1CCC2)N1Cc2ccc(C#Cc3ccc(CN4CCC(O)CC4)cc3)cc2C1=O (stereo not drawn) | 8.15
12 | O=C(Nc1nccs1)C(c1ncn2c1CCC2)N1Cc2ccccc2C1=O (stereo not drawn) | 7.80
13 | O=C(Nc1nccs1)C(c1ncn2c1CCC2)N1Cc2ccc(C#Cc3ccc(CN4CCCCC4)cc3)cc2C1=O (stereo not drawn) | 7.80

Test system: BaF3
Experiment: Cytotoxicity against mouse BaF3 cells expressing EGFR L858R/T790M/C797S mutant assessed as reduction in cell viability measured after 72 hrs by cell titre glo luminescence assay
Format: functional, cell-based
Conditions: BaF3, 72 h

Row | SMILES | pIC50
14 | O=C(Nc1nccs1)C(c1ncn2c1CCC2)N1Cc2c(F)cc(C#Cc3ccc(CN4CCC(CO)CC4)cc3)cc2C1=O (stereo not drawn) | 9.00
15 | Nc1ccc(C#Cc2cc(F)c3c(c2)C(=O)N(C(C(=O)Nc2nccs2)c2ncn4c2CCC4)C3)cn1 (stereo not drawn) | 6.70
16 | CCN1CCN(c2ccc(-c3cc(F)c4cn(C(C(=O)Nc5nccs5)c5ncn6c5CCC6)nc4c3)cc2)CC1 (stereo not drawn) | 7.89
17 | O=C(Nc1nccs1)C(c1ncn2c1CCC2)N1Cc2ccc(C#Cc3ccc(CN4CCC(O)CC4)cc3)cc2C1=O (stereo not drawn) | 8.00
18 | CCN1CCN(c2ccc(-c3cc(Cl)c4cn(C(C(=O)Nc5nccs5)c5ncn6c5C[C@@H](F)C6)nc4c3Cl)cc2)CC1 (mixture of isomers) | 8.10
19 | O=C(Nc1nccs1)C(c1ncn2c1CCC2)N1Cc2ccc(C#Cc3ccc(CN4CCCCC4)cc3)cc2C1=O (stereo not drawn) | 7.77

Same assay, conditions: BaF3, time 72 hrs

Row | SMILES | IC90 [nM]
20 | O=C(Nc1nccs1)C(c1ncn2c1CCC2)N1Cc2c(F)cc(C#Cc3ccc(CN4CCC(CO)CC4)cc3)cc2C1=O (stereo not drawn) | 2
21 | Nc1ccc(C#Cc2cc(F)c3c(c2)C(=O)N(C(C(=O)Nc2nccs2)c2ncn4c2CCC4)C3)cn1 (stereo not drawn) | 490
22 | CCN1CCN(c2ccc(-c3cc(F)c4cn(C(C(=O)Nc5nccs5)c5ncn6c5CCC6)nc4c3)cc2)CC1 (stereo not drawn) | 30
23 | O=C(Nc1nccs1)C(c1ncn2c1CCC2)N1Cc2ccc(C#Cc3ccc(CN4CCC(O)CC4)cc3)cc2C1=O (stereo not drawn) | 24
24 | CCN1CCN(c2ccc(-c3cc(Cl)c4cn(C(C(=O)Nc5nccs5)c5ncn6c5C[C@@H](F)C6)nc4c3Cl)cc2)CC1 (mixture of isomers) | 19
25 | O=C(Nc1nccs1)C(c1ncn2c1CCC2)N1Cc2ccc(C#Cc3ccc(CN4CCCCC4)cc3)cc2C1=O (stereo not drawn) | 42

Test system: BaF3
Experiment: Cytotoxicity against mouse BaF3 cells harboring EGFR L858R/C797S mutant assessed as reduction in cell viability measured after 72 hrs by cell titre glo luminescence assay
Format: functional, cell-based
Conditions: BaF3, 72 h

Row | SMILES | pIC50
26 | O=C(Nc1nccs1)C(c1ncn2c1CCC2)N1Cc2c(F)cc(C#Cc3ccc(CN4CCC(CO)CC4)cc3)cc2C1=O (stereo not drawn) | 7.80
27 | Nc1ccc(C#Cc2cc(F)c3c(c2)C(=O)N(C(C(=O)Nc2nccs2)c2ncn4c2CCC4)C3)cn1 (stereo not drawn) | < 5.00
28 | CCN1CCN(c2ccc(-c3cc(F)c4cn(C(C(=O)Nc5nccs5)c5ncn6c5CCC6)nc4c3)cc2)CC1 (stereo not drawn) | 6.19
29 | O=C(Nc1nccs1)C(c1ncn2c1CCC2)N1Cc2ccc(C#Cc3ccc(CN4CCC(O)CC4)cc3)cc2C1=O (stereo not drawn) | 5.90
30 | CCN1CCN(c2ccc(-c3cc(Cl)c4cn(C(C(=O)Nc5nccs5)c5ncn6c5C[C@@H](F)C6)nc4c3Cl)cc2)CC1 (mixture of isomers) | 7.82
31 | O=C(Nc1nccs1)C(c1ncn2c1CCC2)N1Cc2ccc(C#Cc3ccc(CN4CCCCC4)cc3)cc2C1=O (stereo not drawn) | 5.89

Same assay, conditions: BaF3, time 72 hrs

Row | SMILES | IC90 [nM]
32 | O=C(Nc1nccs1)C(c1ncn2c1CCC2)N1Cc2c(F)cc(C#Cc3ccc(CN4CCC(CO)CC4)cc3)cc2C1=O (stereo not drawn) | 47
33 | Nc1ccc(C#Cc2cc(F)c3c(c2)C(=O)N(C(C(=O)Nc2nccs2)c2ncn4c2CCC4)C3)cn1 (stereo not drawn) | > 10000
34 | CCN1CCN(c2ccc(-c3cc(F)c4cn(C(C(=O)Nc5nccs5)c5ncn6c5CCC6)nc4c3)cc2)CC1 (stereo not drawn) | 2600
35 | O=C(Nc1nccs1)C(c1ncn2c1CCC2)N1Cc2ccc(C#Cc3ccc(CN4CCC(O)CC4)cc3)cc2C1=O (stereo not drawn) | 3250
36 | CCN1CCN(c2ccc(-c3cc(Cl)c4cn(C(C(=O)Nc5nccs5)c5ncn6c5C[C@@H](F)C6)nc4c3Cl)cc2)CC1 (mixture of isomers) | 42
37 | O=C(Nc1nccs1)C(c1ncn2c1CCC2)N1Cc2ccc(C#Cc3ccc(CN4CCCCC4)cc3)cc2C1=O (stereo not drawn) | 3100

Test system: not listed separately
Experiment: Intrinsic clearance in mouse liver hepatocytes measured per 10^6 cells incubated upto 2 hrs by LC-MS/MS analysis
Format: ADME, cell-based, Hepatocyte
Conditions: read-out: CLH

Row | SMILES | hepatocyte CLint [µL/min/1e6 cells]
38 | O=C(Nc1nccs1)C(c1ncn2c1CCC2)N1Cc2ccc(C#Cc3ccc(CN4CCCCC4)cc3)cc2C1=O (stereo not drawn) | 6
